Source: US4414206A, “Animal feeds” (Bristol-Myers Company, priority 1982, dated 1983)
“Also recorded” adds a separate entry of the source.

Tests used:
Male broiler chickens = test: Four week growth and feed efficiency study in broiler chicks fed amphomycin-supplemented feed; type: in vivo, chickens (Hubbard breeder pullet×White Mountain males)
Description: The efficacy of amphomycin in promoting growth and improving the feed efficiency of broiler chicks is illustrated below.
In this example a basal diet was employed containing the following ingredients:
Male broiler chickens (Hubbard breeder pullet×White Mountain males) were used as the test animal. They were housed in electrically heated, metal battery brooders equipped with raised wire-screen floors. […] The room and battery units were left unclean from a previous test that terminated before the chicks were started. Drinking water for the test came from overflow water from a laying cage operation. The water was collected in garbage cans and was allowed to stand overnight to permit particulate matter to settle out. The birds were vaccinated at 7 days of age for Newcastle, Bronchitis and Marek's. The feed trays were fitted with wire screens riding on top of the feed to minimize feed wastage. Feed and water were fed ad libitum. Four groups of ten birds each, chosen on the basis of hatching body weight, were fed the experimental diet for a four week test period and four groups were fed the control diet. The groups of birds and diets were placed in the batteries on the basis of position chosen from tables of random numbers. The birds and the feed were group weighed on a weekly basis. The test was terminated at four weeks of age.
The control diet was prepared as follows:
The experimental diet (for amphomycin concentration
of 4 grams/ton) was prepared as follows:
*calculated for both groups at 800 grams body weight from feed efficiency

rumen fermentation = test: Artificial rumen test (in vitro rumen fermentation); settings: for Cellulose digested (%) / Methane produced (cc) / Propionate produced / Total calories digested (Calories) / Caloric efficiency: mean ± one standard deviation, three observations; for Caloric efficiency: formula in drawing 1
Protocol: A standard in vitro method for determining compounds which stimulate propionate production during rumen fermentation is the artificial rumen method described in U.S. Pat. No. 3,794,732. […] This property in ruminants is presumably in addition to the previously-described feed-utilization efficiency promoting activity of amphomycin in monogastric animals which involves a different mechanism of action.
Amphomycin was evaluated at doses of 0.025, 0.1 and 0.5 mg per incubation (25 ml. inoculum--artificial saliva with cellulose, starch and urea as nutrients) according to the general procedure of Example 5 of U.S. Pat. No. 3,794,732.
^a Results reported as mean ± one standard deviation. Controls
^b Reported as a percent of total volatile fatty acid calories

[1] = 4 grams/ton amphomycin in feed, versus control group
[2] = broiler chickens, about 4 to 12 grams per ton of feed, on average
[3] = 0.025, 0.1 and 0.5 mg per incubation

amphomycin
Body weights in grams at 4 weeks of age (Male broiler chickens; 4 grams/ton amphomycin in feed, ad libitum, four week test, male broiler chickens): 817.5 grams
Improvement in feed efficiency (Male broiler chickens; [1]): 4.07%
Percentage increase in weight at end of 4 weeks (Male broiler chickens; [1]): 6.21%
Feed efficiency calculated as consumption in grams ÷ average body weight in grams (Male broiler chickens; 4 grams/ton amphomycin in feed, calculated at 800 grams body weight from feed efficiency curve): 1.480
less total feed consumed than comparable chickens fed same diet without amphomycin (Male broiler chickens; [2]): 3%
more weight gained than comparable chickens fed same diet without amphomycin (Male broiler chickens; [2]): about 3%
Urease activity (rumen fermentation; 0.025 mg/tube): 90 % of control
Cellulose digested (%) (rumen fermentation; 0.025 mg/tube): 64.9 ± 2.1%
Methane produced (cc) (rumen fermentation; 0.025 mg/tube): 2.88 ± 0.47 cc
Propionate produced (rumen fermentation; 0.025 mg/tube): 58.9 ± 0.9% of total volatile fatt
Total calories digested (Calories) (rumen fermentation; 0.025 mg/tube): 1108 ± 22 Calories
Caloric efficiency (rumen fermentation; 0.025 mg/tube): 62.1 ± 4.5
Urease activity (rumen fermentation; 0.1 mg/tube): 84 % of control
Cellulose digested (%) (rumen fermentation; 0.1 mg/tube): 64.0 ± 2.4%
Methane produced (cc) (rumen fermentation; 0.1 mg/tube): 2.53 ± 0.20 cc
Propionate produced (rumen fermentation; 0.1 mg/tube): 62.1 ± 1.7% of total volatile fatt
Total calories digested (Calories) (rumen fermentation; 0.1 mg/tube): 1098 ± 26 Calories
Caloric efficiency (rumen fermentation; 0.1 mg/tube): 68.9 ± 10.0
Urease activity (rumen fermentation; 0.5 mg/tube): 60 % of control
Cellulose digested (%) (rumen fermentation; 0.5 mg/tube): 57.5 ± 4.0%
Methane produced (cc) (rumen fermentation; 0.5 mg/tube): 1.27 ± 0.07 cc
Propionate produced (rumen fermentation; 0.5 mg/tube): 67.1 ± 4.7% of total volatile fatt
Total calories digested (Calories) (rumen fermentation; 0.5 mg/tube): 1029 ± 43 Calories
Caloric efficiency (rumen fermentation; 0.5 mg/tube): 65.5 ± 16.8
cellulase / cellulolysis (cellulose digestion) (in words) (rumen fermentation; [3]): did not significantly inhibit; also recorded: decreases slightly; also recorded: does not significantly inhibit
methane production (in words) (rumen fermentation; [3]): significantly inhibits; also recorded: decreases significantly
propionate production (in words) (rumen fermentation; [3]): significantly increase; also recorded: increases significantly
total calories digested (in words) (rumen fermentation; [3]): did not significantly inhibit cellulase or significantly affect total calories digested
dose that appears to be the most efficacious (rumen fermentation; 25 ml. inoculum per incubation): 0.1 mg. per incubation
acetate and butyrate production (in words) (rumen fermentation; as the dose increases): decreases
